Results on one compound are retold here after US9365833B2, “Leucine zipper variant and use thereof” (Samsung Electronics Co., Ltd., priority 2013, dated 2016).

This data set concerns skin cancer cell line A-431. Put plainly: cancer cell growth inhibition (CellTiter-Glo cell viability). Type of data set: cell-based. To be noted: mutant p53 expression, up to 15 μM, 5 days; FIG. 11. How it is done:
The leucine zipper variant p53LZ2 was evaluated for anticancer activity against the osteosarcoma cell line SJSA-1 (ATCC), the breast cancer cell line MCF7 (ATCC), and the skin cancer cell line A-431 (ATCC), the first two expressing wild-type p53 and the other expressing mutant p53.
Each of the cell lines was seeded at a density of 1×10^3 cells/well in 10% FBS-supplemented RPMI (Gibco) or DMEM (Gibco) into 96-well plates. The next day, the leucine zipper variant (TAT-p53LZ2; TAT (RKKRRQRRR; SEQ ID NO: 5) linked to the N-terminus of p53LZ2, constructed in Example 1) or Nutlin-3 (Sigma) was added at a concentration of 0, 0.59, 0.88, 1.32, 1.98, 2.96, 4.44, 6.67, 10, or 15 μM (increasing by 1.5 fold) in an amount of 100 μL to each well before the cells were cultured for 5 days at 37° C. in an 5% CO2 incubator. To each well was added 80 μL of CellTiter-Glo reagent (Promega), followed by measuring luminescence on EnVision Multilabel Reader (PerkinElmer) to examine cell viability.

As for `COc1ccc(C2=N[C@@H](c3ccc(Cl)cc3)[C@@H](c3ccc(Cl)cc3)N2C(=O)N2CCNC(=O)C2)c(OC(C)C)c1` [Nutlin-3], the “cytotoxicity in A431 cell line” value was “failed to exert cytotoxicity”.
